The record followed here is patent publication US9321773B2, “Compounds” (Respivert Ltd, priority 2009, dated 2016).

Read-outs that look alike come from different tables or passages of the source.

In data set [1] the test system is PMA-differentiated U937 cells. Put plainly: MTT Assay (cell viability). The class given is cell-based, Human. Particulars: percentage loss of cell viability; for Cell Viability MTT Assay in D-U937 cells at 4 hr: 4 hr in 5% FCS; for Cell Viability MTT Assay in D-U937 cells at 24 hr: 24 hr in 10% FCS. In outline: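 Differentiated U937 cells treated with compound for 4 hr (5% FCS) or 24 hr (10% FCS), then given MTT for 1 hr; formazan dissolved in DMSO and absorbance read at 550 nm. Viability loss expressed as % versus 0.5% DMSO vehicle.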

The nature of data set [2]: Stereochemical analysis by chiral stationary phase HPLC (atropisomerism). The class given is physicochemical. Particulars: chiral stationary phase HPLC (16 different conditions for the examples). As for the experimental part: Each of these mobile phase are compatible with the column packings referred to above, providing sixteen different solvent and stationary phase permutations. Modifiers such as triethylamine (0.1%), formic acid (0.1%) may be added to improve the resolution
Semi-preparative Chiral Stationary Phase LC-UV was performed on a Gilson preparative modular system using a Daicel Chiralpak AD semi-prep column ([…], 20×250 mm) and a flow rate of 18 mL/min eluting with an isocratic method over 20 min using […] heptane:IPA and 0.1% triethylamine employing an injection volume of 1.0 mL.

In another data set the target is recombinant PI3 kinase α (Homo sapiens (Human), UniProt P42336). Description: Enzyme Inhibition Assay (HTRF PI3K enzyme assay, TR-FRET). In kind it is biochemical. In outline:
(§1)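 TR-FRET readout after 15-18 hr at RT with biotinylated PIP3, GST-tagged GRP1 PH domain and europium/APC fluorophores; product PIP3 displaces the tracer and lowers the signal. Beforehand, compound and PIP2 were reacted for 2 hr at RT with human recombinant PI3Kα, δ or γ.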

A further data set concerns the target recombinant PI3 kinase γ (Homo sapiens (Human), UniProt P48736). The description is as above. The class given is biochemical. In outline:
as §1

Another data set has as its target recombinant PI3 kinase δ (Homo sapiens (Human), UniProt O00329). The data set is described as above. In kind it is biochemical. In outline: as §1
Data set [3] relates to H2O2 induced pAkt in D-U937 cells. Put plainly: PI3Kδ Cell Based Assay (H2O2 induced pAkt). The note with it: Homo sapiens. In outline: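 Read-out is the pAkt/total Akt signal ratio, measured with anti-pAkt and anti-pan-Akt antibodies after H2O2 stimulation. Cells were U937 monocytes given PMA (100 ng/mL) for 48 to 72 hr. IC50 values fitted from compound serial dilutions.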

Where [4] appears, read: activity range, read-out: PI3 Kinase Inhibition IC50 values at stated Isozyme α.
The mark [5] stands for this setting: activity range, read-out: PI3 Kinase Inhibition IC50 values at stated Isozyme γ.
Setting [6] is: activity range, read-out: PI3 Kinase Inhibition IC50 values at stated Isozyme δ.
The mark [7] stands for this setting: dU937, activity range, D-U937 cells, read-out: Cellular Activity IC50 values (H2O2 induced pAkt D-U937 Cells).
The mark [8] stands for this setting: dU937, read-out: Cellular Activity IC50 values (H2O2 induced pAkt D-U937 Cells).

Chain of recombinant PI3 kinase α (P42336 whole entry, the tested form may be a part): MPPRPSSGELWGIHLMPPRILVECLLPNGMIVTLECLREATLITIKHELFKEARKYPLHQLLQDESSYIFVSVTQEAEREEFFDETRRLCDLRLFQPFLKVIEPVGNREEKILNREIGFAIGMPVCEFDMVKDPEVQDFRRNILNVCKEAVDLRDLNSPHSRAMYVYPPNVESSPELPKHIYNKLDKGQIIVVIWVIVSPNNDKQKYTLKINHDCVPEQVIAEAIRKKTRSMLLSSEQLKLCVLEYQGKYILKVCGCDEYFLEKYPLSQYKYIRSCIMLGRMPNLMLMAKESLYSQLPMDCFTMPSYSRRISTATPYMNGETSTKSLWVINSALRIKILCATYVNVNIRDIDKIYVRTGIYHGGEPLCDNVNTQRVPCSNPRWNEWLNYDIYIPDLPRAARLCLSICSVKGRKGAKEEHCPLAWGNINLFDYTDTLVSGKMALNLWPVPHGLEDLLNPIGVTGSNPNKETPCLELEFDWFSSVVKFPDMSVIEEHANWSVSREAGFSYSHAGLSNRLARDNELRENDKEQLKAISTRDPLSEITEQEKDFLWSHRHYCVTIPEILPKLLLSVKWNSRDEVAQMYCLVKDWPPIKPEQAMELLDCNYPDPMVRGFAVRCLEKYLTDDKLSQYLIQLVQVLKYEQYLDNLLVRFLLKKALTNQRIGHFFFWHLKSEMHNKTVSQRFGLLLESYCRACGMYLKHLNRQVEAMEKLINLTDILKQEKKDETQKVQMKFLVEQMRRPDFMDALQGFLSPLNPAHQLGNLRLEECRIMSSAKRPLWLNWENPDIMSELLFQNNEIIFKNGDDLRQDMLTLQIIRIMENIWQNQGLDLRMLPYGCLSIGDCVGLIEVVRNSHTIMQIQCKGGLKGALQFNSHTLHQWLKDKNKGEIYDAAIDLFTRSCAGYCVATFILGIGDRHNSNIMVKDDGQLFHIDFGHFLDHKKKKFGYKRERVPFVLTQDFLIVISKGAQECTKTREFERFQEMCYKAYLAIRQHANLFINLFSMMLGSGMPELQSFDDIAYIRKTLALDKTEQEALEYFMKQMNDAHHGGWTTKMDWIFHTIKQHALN
Chain of recombinant PI3 kinase α (P27986 whole entry partner, the tested form may be a part): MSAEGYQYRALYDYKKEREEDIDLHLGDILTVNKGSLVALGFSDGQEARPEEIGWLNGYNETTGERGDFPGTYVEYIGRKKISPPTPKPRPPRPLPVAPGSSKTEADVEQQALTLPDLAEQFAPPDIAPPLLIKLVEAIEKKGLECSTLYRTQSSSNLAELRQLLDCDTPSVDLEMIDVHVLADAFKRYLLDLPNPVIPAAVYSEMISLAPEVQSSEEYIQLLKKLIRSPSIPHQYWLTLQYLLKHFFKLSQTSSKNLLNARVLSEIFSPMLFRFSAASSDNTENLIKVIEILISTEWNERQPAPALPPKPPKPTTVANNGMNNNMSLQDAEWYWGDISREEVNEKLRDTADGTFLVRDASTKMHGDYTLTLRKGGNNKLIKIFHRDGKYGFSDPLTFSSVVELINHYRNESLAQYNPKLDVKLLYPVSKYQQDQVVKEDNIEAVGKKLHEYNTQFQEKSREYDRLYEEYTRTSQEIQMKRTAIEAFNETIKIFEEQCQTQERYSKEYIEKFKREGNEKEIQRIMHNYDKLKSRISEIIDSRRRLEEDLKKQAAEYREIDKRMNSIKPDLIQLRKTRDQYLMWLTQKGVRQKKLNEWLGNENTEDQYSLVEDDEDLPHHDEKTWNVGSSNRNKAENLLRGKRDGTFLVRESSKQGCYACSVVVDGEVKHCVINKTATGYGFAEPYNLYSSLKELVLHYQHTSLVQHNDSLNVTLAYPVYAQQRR
Chain of recombinant PI3 kinase δ (O00329 whole entry): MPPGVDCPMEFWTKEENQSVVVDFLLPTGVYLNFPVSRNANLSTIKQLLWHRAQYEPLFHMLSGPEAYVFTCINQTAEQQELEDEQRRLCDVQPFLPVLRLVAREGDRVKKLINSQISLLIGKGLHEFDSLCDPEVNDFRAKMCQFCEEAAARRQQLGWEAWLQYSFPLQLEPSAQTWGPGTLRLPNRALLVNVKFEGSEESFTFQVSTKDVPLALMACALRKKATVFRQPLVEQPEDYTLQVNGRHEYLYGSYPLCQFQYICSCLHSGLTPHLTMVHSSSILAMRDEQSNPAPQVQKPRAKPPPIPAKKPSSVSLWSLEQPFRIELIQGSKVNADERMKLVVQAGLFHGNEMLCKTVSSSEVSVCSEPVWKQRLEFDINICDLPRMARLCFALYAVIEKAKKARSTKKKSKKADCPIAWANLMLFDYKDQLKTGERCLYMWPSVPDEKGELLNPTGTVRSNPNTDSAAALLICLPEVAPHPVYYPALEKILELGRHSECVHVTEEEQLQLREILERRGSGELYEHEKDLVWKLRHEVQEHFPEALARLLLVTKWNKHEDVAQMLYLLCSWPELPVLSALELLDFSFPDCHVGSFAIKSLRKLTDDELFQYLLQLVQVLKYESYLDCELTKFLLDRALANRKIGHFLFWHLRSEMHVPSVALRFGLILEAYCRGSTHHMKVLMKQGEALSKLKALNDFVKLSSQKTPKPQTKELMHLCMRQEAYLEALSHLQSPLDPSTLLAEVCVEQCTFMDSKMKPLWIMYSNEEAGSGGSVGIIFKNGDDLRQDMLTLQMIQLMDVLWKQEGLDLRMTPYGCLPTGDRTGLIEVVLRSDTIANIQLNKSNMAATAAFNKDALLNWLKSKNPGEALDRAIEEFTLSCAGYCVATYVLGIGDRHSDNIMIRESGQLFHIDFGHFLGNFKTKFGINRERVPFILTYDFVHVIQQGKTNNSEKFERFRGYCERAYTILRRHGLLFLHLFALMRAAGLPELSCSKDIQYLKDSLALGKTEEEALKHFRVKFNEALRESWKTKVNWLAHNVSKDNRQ
Chain of recombinant PI3 kinase δ (P27986 whole entry partner): as the sequence (P27986 whole entry partner, the tested form may be a part) above
Chain of recombinant PI3 kinase γ (P48736 whole entry): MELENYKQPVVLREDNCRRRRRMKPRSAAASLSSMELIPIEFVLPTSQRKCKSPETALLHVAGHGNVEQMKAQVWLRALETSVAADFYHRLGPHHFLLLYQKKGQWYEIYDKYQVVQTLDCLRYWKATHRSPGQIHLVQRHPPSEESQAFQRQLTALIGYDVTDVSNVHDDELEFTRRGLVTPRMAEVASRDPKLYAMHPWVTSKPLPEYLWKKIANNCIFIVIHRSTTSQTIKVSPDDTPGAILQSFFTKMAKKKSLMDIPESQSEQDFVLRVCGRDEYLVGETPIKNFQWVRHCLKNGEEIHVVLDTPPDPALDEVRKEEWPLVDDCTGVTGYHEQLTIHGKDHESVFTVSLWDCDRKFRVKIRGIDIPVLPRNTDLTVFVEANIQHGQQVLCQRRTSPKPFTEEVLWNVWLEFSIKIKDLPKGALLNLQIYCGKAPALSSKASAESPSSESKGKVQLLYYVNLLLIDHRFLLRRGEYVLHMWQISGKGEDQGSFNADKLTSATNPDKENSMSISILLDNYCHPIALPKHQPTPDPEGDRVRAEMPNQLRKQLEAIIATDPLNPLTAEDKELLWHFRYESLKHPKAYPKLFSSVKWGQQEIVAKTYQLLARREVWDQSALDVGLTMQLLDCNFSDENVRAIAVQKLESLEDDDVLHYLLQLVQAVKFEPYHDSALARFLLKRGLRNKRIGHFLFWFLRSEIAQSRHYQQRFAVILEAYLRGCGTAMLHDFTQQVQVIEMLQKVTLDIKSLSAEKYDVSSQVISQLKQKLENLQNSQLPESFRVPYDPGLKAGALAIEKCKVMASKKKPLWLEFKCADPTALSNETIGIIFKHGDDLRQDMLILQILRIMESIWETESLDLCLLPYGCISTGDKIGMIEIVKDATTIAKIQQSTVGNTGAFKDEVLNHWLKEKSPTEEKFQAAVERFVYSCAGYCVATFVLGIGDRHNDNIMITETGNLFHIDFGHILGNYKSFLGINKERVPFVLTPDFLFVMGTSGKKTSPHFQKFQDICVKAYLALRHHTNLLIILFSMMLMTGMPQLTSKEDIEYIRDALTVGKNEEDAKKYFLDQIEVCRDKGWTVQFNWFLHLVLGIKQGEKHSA

On to `C#Cc1cccc2nc(Cn3nc(-c4ccc(O)cc4)c4c(N)ncnc43)n(Cc3c(F)cccc3F)c(=O)c12` [Example 34, 2-((4-Amino-3-(4-hydroxyphenyl)-1H-pyrazolo[3,4-d]pyrimidin-1-yl)methyl)-3-(2,6-difluorobenzyl)-5-ethynylquinazolin-4(3H)-one], for which the “Cell Viability MTT Assay in D-U937 cells at 4 hr” value in data set [1] was “− (− <30%)”. Further, the “Cell Viability MTT Assay in D-U937 cells at 24 hr” value in data set [1] is reported as “− (− <30%)”. In addition, the “atropisomerism by chiral stationary phase HPLC” value (shortened to “atropisomerism”) in data set [2] is reported as “no evidence for atropisomerism was observed”. Also, the IC50 at recombinant PI3 kinase α (setting [4]) is 50 to 1000 nM; at recombinant PI3 kinase γ (setting [5]) it was 50 to 1000 nM; at recombinant PI3 kinase δ (setting [6]), less than 50 nM; in data set [3] (setting [7]), less than 10 nM.

Regarding `C#Cc1cccc2nc(Cn3nc(-c4ccc(O)cc4)c4c(N)ncnc43)n(Cc3cccc(C(F)(F)F)c3)c(=O)c12` [Example 16, 2-((4-Amino-3-(4-hydroxyphenyl)-1H-pyrazolo[3,4-d]pyrimidin-1-yl)methyl)-5-ethynyl-3-(3-(trifluoromethyl)benzyl)quinazolin-4(3H)-one], the “Cell Viability MTT Assay in D-U937 cells at 4 hr” value in data set [1] is “− (− <30%)”. Further, the “Cell Viability MTT Assay in D-U937 cells at 24 hr” value in data set [1] is “− (− <30%)”. In data set [2], the “atropisomerism” value was “no evidence for atropisomerism was observed”. Besides, the IC50 at recombinant PI3 kinase α (setting [4]) is 50 to 1000 nM; at recombinant PI3 kinase γ (setting [5]) it was 50 to 1000 nM; at recombinant PI3 kinase δ (setting [6]) it was less than 50 nM; in data set [3] (setting [7]) it was less than 10 nM.

As to `C#Cc1cccc2nc(Cn3nc(-c4ccc(O)cc4)c4c(N)ncnc43)n(Cc3ccccc3F)c(=O)c12` [Example 13, 2-((4-Amino-3-(4-hydroxyphenyl)-1H-pyrazolo[3,4-d]pyrimidin-1-yl)methyl)-5-ethynyl-3-(2-fluorobenzyl) quinazolin-4(3H)-one], the “Cell Viability MTT Assay in D-U937 cells at 4 hr” value in data set [1] is recorded as “− (− <30%)”. In data set [1], the “Cell Viability MTT Assay in D-U937 cells at 24 hr” value is “− (− <30%)”. Besides, the “atropisomerism” value in data set [2] is on record as “no evidence for atropisomerism was observed”. The IC50 was 50 to 1000 nM on recombinant PI3 kinase α (setting [4]), 50 to 1000 nM at recombinant PI3 kinase γ (setting [5]), less than 50 nM on recombinant PI3 kinase δ (setting [6]) and less than 10 nM in data set [3] (setting [8]).

With `C#Cc1cccc2nc(Cn3nc(-c4cccc(O)c4)c4c(N)ncnc43)n(Cc3ccc(S(C)(=O)=O)cc3)c(=O)c12` [Example 19, 2-((4-Amino-3-(3-hydroxyphenyl)-1H-pyrazolo[3,4-d]pyrimidin-1-yl)methyl)-5-ethynyl-3-(4-(methylsulfonyl)benzyl)quinazolin-4(3H)-one], in data set [1], the “Cell Viability MTT Assay in D-U937 cells at 4 hr” value is “− (− <30%)”. Besides, the “Cell Viability MTT Assay in D-U937 cells at 24 hr” value in data set [1] is recorded as “− (− <30%)”. Further, the “atropisomerism” value in data set [2] is recorded as “no evidence for atropisomerism was observed”. For the same compound, the IC50 was 50 to 1000 nM at recombinant PI3 kinase α (setting [4]), 50 to 1000 nM on recombinant PI3 kinase γ (setting [5]), less than 50 nM on recombinant PI3 kinase δ (setting [6]) and less than 10 nM in data set [3] (setting [7]).

Consider `C#Cc1cccc2nc(Cn3nc(-c4cccc(O)c4)c4c(N)ncnc43)n(Cc3cccc(C(F)(F)F)c3)c(=O)c12` [Example 17, 2-((4-Amino-3-(3-hydroxyphenyl)-1H-pyrazolo[3,4-d]pyrimidin-1-yl)methyl)-5-ethynyl-3-(3-(trifluoromethyl)benzyl)quinazolin-4(3H)-one], for which the “Cell Viability MTT Assay in D-U937 cells at 4 hr” value in data set [1] is “− (− <30%)”. For the same compound, the “Cell Viability MTT Assay in D-U937 cells at 24 hr” value in data set [1] is listed as “− (− <30%)”. Moreover, the “atropisomerism” value in data set [2] is reported as “no evidence for atropisomerism was observed”. Further, the IC50 on recombinant PI3 kinase α (setting [4]) is 50 to 1000 nM; at recombinant PI3 kinase γ (setting [5]) it was more than 1000 nM; at recombinant PI3 kinase δ (setting [6]), less than 50 nM; in data set [3] (setting [7]), less than 10 nM.

Regarding `C#Cc1cccc2nc(Cn3nc(-c4cccc(O)c4)c4c(N)ncnc43)n(Cc3cccc(OC)c3)c(=O)c12` [Example 15, 2-((4-Amino-3-(3-hydroxyphenyl)-1H-pyrazolo[3,4-d]pyrimidin-1-yl)methyl)-5-ethynyl-3-(3-methoxybenzyl)quinazolin-4(3H)-one], the “Cell Viability MTT Assay in D-U937 cells at 4 hr” value in data set [1] was “− (− <30%)”. Further, the “Cell Viability MTT Assay in D-U937 cells at 24 hr” value in data set [1] is on record as “− (− <30%)”. For the same compound, in data set [2], the “atropisomerism” value is “no evidence for atropisomerism was observed”. Also, the IC50 at recombinant PI3 kinase α (setting [4]) was more than 1000 nM; on recombinant PI3 kinase α (read-out: PI3 Kinase Inhibition IC50 values at stated Isozyme (nM) α), 1970 nM; at recombinant PI3 kinase γ (setting [5]), 50 to 1000 nM; at recombinant PI3 kinase γ (read-out: PI3 Kinase Inhibition IC50 values at stated Isozyme (nM) γ), 289 nM; on recombinant PI3 kinase δ (setting [6]) it was less than 50 nM; at recombinant PI3 kinase δ (read-out: PI3 Kinase Inhibition IC50 values at stated Isozyme (nM) δ) it was 4 nM. For the same compound, the IC50 in data set [3] (setting [7]) was less than 10 nM; in data set [3] (dU937, read-out: Cellular Activity IC50 values (H2O2 induced pAkt (nM) D-U937 Cells)) it was 0.57 nM.

As to `C#Cc1cccc2nc(Cn3nc(-c4ccc(O)cc4)c4c(N)ncnc43)n(Cc3ccc(Cl)cc3)c(=O)c12` [Example 18, 2-((4-Amino-3-(4-hydroxyphenyl)-1H-pyrazolo[3,4-d]pyrimidin-1-yl)methyl)-3-(4-chlorobenzyl)-5-ethynyl quinazolin-4(3H)-one], the “Cell Viability MTT Assay in D-U937 cells at 4 hr” value in data set [1] is reported as “− (− <30%)”. In data set [1], the “Cell Viability MTT Assay in D-U937 cells at 24 hr” value is given as “− (− <30%)”. The “atropisomerism” value in data set [2] is reported as “no evidence for atropisomerism was observed”. For the same compound, the IC50 on recombinant PI3 kinase α (setting [4]) is 50 to 1000 nM; on recombinant PI3 kinase γ (setting [5]) it was 50 to 1000 nM; on recombinant PI3 kinase δ (setting [6]), less than 50 nM; in data set [3] (setting [7]), less than 10 nM.

For the compound `C#Cc1cccc2nc(Cn3nc(-c4cccc(O)c4)c4c(N)ncnc43)n(Cc3cc(C)on3)c(=O)c12` [Example 31, 2-((4-Amino-3-(3-hydroxyphenyl)-1H-pyrazolo[3,4-d]pyrimidin-1-yl)methyl)-5-ethynyl-3-((5-methylisoxazol-3-yl)methyl)quinazolin-4(3H)-one], in data set [1], the “Cell Viability MTT Assay in D-U937 cells at 4 hr” value is given as “− (− <30%)”. In addition, in data set [1], the “Cell Viability MTT Assay in D-U937 cells at 24 hr” value is on record as “− (− <30%)”. Besides, the “atropisomerism” value in data set [2] is on record as “no evidence for atropisomerism was observed”. For the same compound, the IC50 at recombinant PI3 kinase α (setting [4]) is 50 to 1000 nM; on recombinant PI3 kinase γ (setting [5]), 50 to 1000 nM; at recombinant PI3 kinase δ (setting [6]), less than 50 nM; in data set [3] (setting [7]), less than 10 nM.

On to `C#Cc1cccc2nc(Cn3nc(-c4ccc(O)cc4)c4c(N)ncnc43)n(Cc3cccc(Cl)c3)c(=O)c12` [Example 11, 2-((4-Amino-3-(4-hydroxyphenyl)-1H-pyrazolo[3,4-d]pyrimidin-1-yl)methyl)-3-(3-chlorobenzyl)-5-ethynyl quinazolin-4(3H)-one], for which, in data set [1], the “Cell Viability MTT Assay in D-U937 cells at 4 hr” value is “− (− <30%)”. The “Cell Viability MTT Assay in D-U937 cells at 24 hr” value in data set [1] is “− (− <30%)”. Moreover, in data set [2], the “atropisomerism” value was “no evidence for atropisomerism was observed”. In addition, the IC50 at recombinant PI3 kinase α (setting [4]) is 50 to 1000 nM; on recombinant PI3 kinase γ (setting [5]) it was 50 to 1000 nM; on recombinant PI3 kinase δ (setting [6]), less than 50 nM; in data set [3] (setting [8]) it was less than 10 nM.

As to `C#Cc1cccc2nc(Cn3nc(-c4ccc(O)cc4)c4c(N)ncnc43)n(Cc3cc(C)on3)c(=O)c12` [Example 32, 2-((4-Amino-3-(4-hydroxyphenyl)-1H-pyrazolo[3,4-d]pyrimidin-1-yl)methyl)-5-ethynyl-3-((5-methylisoxazol-3-yl)methyl)quinazolin-4(3H)-one], the “Cell Viability MTT Assay in D-U937 cells at 4 hr” value in data set [1] is “− (− <30%)”. Further, the “Cell Viability MTT Assay in D-U937 cells at 24 hr” value in data set [1] is reported as “− (− <30%)”. Besides, the “atropisomerism” value in data set [2] is reported as “no evidence for atropisomerism was observed”. The IC50 was 50 to 1000 nM at recombinant PI3 kinase α (setting [4]), 50 to 1000 nM at recombinant PI3 kinase γ (setting [5]), less than 50 nM at recombinant PI3 kinase δ (setting [6]) and less than 10 nM in data set [3] (setting [7]).

Consider `C#Cc1cccc2nc(Cn3nc(-c4cccc(O)c4)c4c(N)ncnc43)n(Cc3cccc(S(C)(=O)=O)c3)c(=O)c12` [Example 23, 2-((4-Amino-3-(3-hydroxyphenyl)-1H-pyrazolo[3,4-d]pyrimidin-1-yl)methyl)-5-ethynyl-3-(3-(methylsulfonyl)benzyl)quinazolin-4(3H)-one], for which the “Cell Viability MTT Assay in D-U937 cells at 4 hr” value in data set [1] is “− (− <30%)”. Further, the “Cell Viability MTT Assay in D-U937 cells at 24 hr” value in data set [1] was “− (− <30%)”. Further, the “atropisomerism” value in data set [2] is recorded as “no evidence for atropisomerism was observed”. The IC50 was 50 to 1000 nM at recombinant PI3 kinase α (setting [4]), 50 to 1000 nM on recombinant PI3 kinase γ (setting [5]), less than 50 nM on recombinant PI3 kinase δ (setting [6]) and less than 10 nM in data set [3] (setting [7]).
